Measurements as given in paper PMC7180572, “5-Alkylamino-N-phenylpyrazine-2-carboxamides: Design, Preparation, and Antimycobacterial Evaluation” (Molecules, 2020).
In brackets after ≈: the same amount, converted by molar mass. Where two headings read alike, the source gives them in different places.

Columns and labels:
[1] = test system: Mycobacterium tuberculosis H37Ra ITM-M006710 (ATCC 9431); assay: Microdilution broth, modified Microplate Alamar Blue Assay, whole cell growth inhibition; type: cell-based; conditions: Mycobacterium tuberculosis; in vitro, Middlebrook 7H9 broth, resazurin; read-out: MIC Mtb H37Ra
[2] = test system: Mycobacterium aurum DSM 43999 (ATCC 23366); assay: as above; type: cell-based; conditions: Mycolicibacterium aurum, read-out: MIC Mycobacterium aurum
[3] = test system: Mycobacterium smegmatis DSM 43465 (ATCC 607); assay: as above; type: cell-based; conditions: Mycolicibacterium smegmatis, read-out: MIC Mycobacterium smegmatis
HepG2 cells = assay: HepG2 cytotoxicity, CellTiter 96 (MTS) assay; type: cell-based, human; conditions: for IC50: Homo sapiens, HepG2, 24 h, read-out: HepG2 IC50
[4] = test system: Staphylococcus aureus spp.aureus ATCC 29213, CCM 4223; assay: Antibacterial microdilution broth method (EUCAST); type: cell-based; conditions: read-out: MIC SA
[5] = test system: Staphylococcus aureus methicillin resistant ATCC 43300, CCM 4750; assay: microbe, parasite or virus in culture; type: cell-based; conditions: ATCC 43300 / CCM 4750 / MRSA, read-out: MIC MRSA
[6] = test system: Staphylococcus epidermidis ATCC 12228, CCM 4418; assay: Antibacterial microdilution broth method (EUCAST); type: cell-based; conditions: read-out: MIC SE
[7] = test system: Enterococcus faecalis ATCC 29212, CCM 4224; assay: Antibacterial microdilution broth method (EUCAST); type: cell-based; conditions: read-out: MIC EF
[8] = test system: Escherichia coli ATCC 25922, CCM 3954; assay: Antibacterial microdilution broth method (EUCAST); type: cell-based; conditions: read-out: MIC EC
[9] = test system: Acinetobacter baumanii ATCC 19606, DSM 30007; assay: Antibacterial microdilution broth method (EUCAST); type: cell-based; conditions: Acinetobacter baumannii
[10] = test system: Pseudomonas aeruginosa ATCC 27853, CCM 3955; assay: Antibacterial microdilution broth method (EUCAST); type: cell-based; conditions: read-out: MIC PA
[11] = test system: Candida albicans ATCC 24433, CCM 8320; assay: Antifungal microdilution broth method (EUCAST); type: cell-based; conditions: read-out: MIC CA
[12] = test system: Candida krusei ATCC 6258, CCM 8271; assay: Antifungal microdilution broth method (EUCAST); type: cell-based; conditions: Pichia kudriavzevii, read-out: MIC CK
[13] = test system: Candida parapsilosis ATCC 22019, CCM 8260; assay: Antifungal microdilution broth method (EUCAST); type: cell-based; conditions: Lodderomyces parapsilosis, read-out: MIC CP
[14] = test system: Candida tropicalis ATCC 750, CCM 8264; assay: Antifungal microdilution broth method (EUCAST); type: cell-based; conditions: read-out: MIC CT
[15] = test system: Aspergillus fumigatus ATCC 204305; assay: Antifungal microdilution broth method (EUCAST); type: cell-based; conditions: read-out: MIC AF
[16] = test system: Aspergillus flavus CCM 8363; assay: Antifungal microdilution broth method (EUCAST); type: cell-based; conditions: read-out: MIC AFla
[17] = test system: Absidia corymbifera CCM 8077 (Lichtheimia corymbifera); assay: Antifungal microdilution broth method (EUCAST); type: cell-based; conditions: read-out: MIC AC
[18] = test system: Trichophyton interdigitale ATCC 9533, CCM 8377; assay: Antifungal microdilution broth method (EUCAST); type: cell-based; conditions: read-out: MIC TI
[19] = test system: Klebsiella pneumoniae ATCC 10031, CCM 4415; assay: Antibacterial microdilution broth method (EUCAST)

SMILES	MIC [1]	MIC [2]	MIC [3]	IC50 (HepG2 cells)	MIC ([4]; 24 h)	MIC ([4]; 48 h)	MIC ([5]; 24 h)	MIC ([5]; 48 h)	MIC ([6]; 24 h)	MIC ([6]; 48 h)	MIC ([7]; 24 h)	MIC ([7]; 48 h)	MIC ([8]; 24 h)	MIC ([8]; 48 h)	MIC ([9]; 24h)	MIC ([9]; 48h)	MIC ([10]; 72 h)	MIC ([10]; 120 h)	MIC ([11]; 24 h)	MIC ([11]; 48 h)	further results
CCCCCCCNc1cnc(C(=O)Nc2ccc(O)cc2)cn1 [Compound 3e]	3.91 µg/mL (≈ 11.9 µM)	≥ 500 µg/mL	31.2 µg/mL (≈ 95.2 µM)	44.8 µM	> 500 µM	> 500 µM	> 500 µM	> 500 µM	> 500 µM	> 500 µM	> 500 µM	> 500 µM	> 500 µM	> 500 µM	> 500 µM	> 500 µM	> 500 µM	> 500 µM	> 250 µM	> 250 µM	SI, selectivity index (HepG2 cells; IC50 (HepG2)/MIC against Mtb H37Ra (in µM)): 3.76; MIC ([12]; 24 h): > 250 µM; MIC ([12]; 48 h): > 250 µM; MIC ([13]; 24 h): > 250 µM; MIC ([13]; 48 h): > 250 µM; MIC ([14]; 24 h): > 250 µM; MIC ([14]; 48 h): > 250 µM; MIC ([15]; ATCC204305, 24 h): > 250 µM; MIC ([15]; ATCC204305, 48 h): > 250 µM; MIC ([16]; CCM8363, 24 h): > 250 µM; MIC ([16]; CCM8363, 48 h): > 250 µM; MIC ([17]; CCM8077, 24 h): > 250 µM; MIC ([17]; CCM8077, 48 h): > 250 µM; MIC ([18]; 72 h): > 250 µM; MIC ([18]; 120 h): > 250 µM; melting point: 151.4 to 155.4 °C; MIC KP ([19]; 24h): > 500 µM; MIC KP ([19]; 48h): > 500 µM
CCCCNc1cnc(C(=O)Nc2ccc(C)cc2)cn1 [Compound 4b, 5-(Butylamino)-N-(p-tolyl)pyrazine-2-carboxamide]	≥ 250 µg/mL	≥ 250 µg/mL	≥ 250 µg/mL	> 50 µM	> 125 µM	> 125 µM	> 125 µM	> 125 µM	> 125 µM	> 125 µM	> 125 µM	> 125 µM	> 125 µM	> 125 µM	> 125 µM	> 125 µM	> 125 µM	> 125 µM	> 125 µM	> 125 µM	MIC ([12]; 24 h): > 125 µM; MIC ([12]; 48 h): > 125 µM; MIC ([13]; 24 h): > 125 µM; MIC ([13]; 48 h): > 125 µM; MIC ([14]; 24 h): > 125 µM; MIC ([14]; 48 h): > 125 µM; MIC ([15]; ATCC204305, 24 h): > 125 µM; MIC ([15]; ATCC204305, 48 h): > 125 µM; MIC ([16]; CCM8363, 24 h): > 125 µM; MIC ([16]; CCM8363, 48 h): > 125 µM; MIC ([17]; CCM8077, 24 h): > 125 µM; MIC ([17]; CCM8077, 48 h): > 125 µM; MIC ([18]; 72 h): > 125 µM; MIC ([18]; 120 h): > 125 µM; melting point: 162.6 to 163.6 °C; MIC KP ([19]; 24h): > 125 µM; MIC KP ([19]; 48h): > 125 µM
CCCCCNc1cnc(C(=O)Nc2ccc(C)cc2)cn1 [Compound 4c, 5-(Pentylamino)-N-(p-tolyl)pyrazine-2-carboxamide]	≥ 500 µg/mL	≥ 500 µg/mL	≥ 500 µg/mL	> 25 µM	> 500 µM	> 500 µM	> 500 µM	> 500 µM	> 500 µM	> 500 µM	> 500 µM	> 500 µM	> 500 µM	> 500 µM	> 500 µM	> 500 µM	> 500 µM	> 500 µM	> 125 µM	> 125 µM	MIC ([12]; 24 h): > 125 µM; MIC ([12]; 48 h): > 125 µM; MIC ([13]; 24 h): > 125 µM; MIC ([13]; 48 h): > 125 µM; MIC ([14]; 24 h): > 125 µM; MIC ([14]; 48 h): > 125 µM; MIC ([15]; ATCC204305, 24 h): > 125 µM; MIC ([15]; ATCC204305, 48 h): > 125 µM; MIC ([16]; CCM8363, 24 h): > 125 µM; MIC ([16]; CCM8363, 48 h): > 125 µM; MIC ([17]; CCM8077, 24 h): > 125 µM; MIC ([17]; CCM8077, 48 h): > 125 µM; MIC ([18]; 72 h): > 125 µM; MIC ([18]; 120 h): > 125 µM; melting point: 155.9 to 156.6 °C; MIC KP ([19]; 24h): > 500 µM; MIC KP ([19]; 48h): > 500 µM
CCCCCCCCNc1cnc(C(=O)Nc2ccc(C)cc2)cn1 [Compound 4f, 5-(octylamino)-N-(p-tolyl)pyrazine-2-carboxamide]	≥ 250 µg/mL	≥ 250 µg/mL	≥ 250 µg/mL	> 25 µM	> 125 µM	> 125 µM	> 125 µM	> 125 µM	> 125 µM	> 125 µM	> 125 µM	> 125 µM	> 125 µM	> 125 µM	> 125 µM	> 125 µM	> 125 µM	> 125 µM	> 125 µM	> 125 µM	MIC ([12]; 24 h): > 125 µM; MIC ([12]; 48 h): > 125 µM; MIC ([13]; 24 h): > 125 µM; MIC ([13]; 48 h): > 125 µM; MIC ([14]; 24 h): > 125 µM; MIC ([14]; 48 h): > 125 µM; MIC ([15]; ATCC204305, 24 h): > 125 µM; MIC ([15]; ATCC204305, 48 h): > 125 µM; MIC ([16]; CCM8363, 24 h): > 125 µM; MIC ([16]; CCM8363, 48 h): > 125 µM; MIC ([17]; CCM8077, 24 h): > 125 µM; MIC ([17]; CCM8077, 48 h): > 125 µM; MIC ([18]; 72 h): > 125 µM; MIC ([18]; 120 h): > 125 µM; melting point: 155 to 156 °C; MIC KP ([19]; 24h): > 125 µM; MIC KP ([19]; 48h): > 125 µM
